Assays:
[1] = Particle size analysis of dry-milled products (laser diffraction, Shimadzu SALD-2300); format: physicochemical
Protocol: Milling was performed for Examples 1a to 1c using an air jet mill (Equipment code: CP-AJM-01; Promas engineers) with the following parameters: Micronisation was repeated in all examples by performing the air jet milling for a second time using the same parameters. This allowed the particle size D90 to be reduced to less than 10 μm. [table] Four drops of Tween 20 were added to 25 mL of water and the mixture was sonicated for 3 minutes to form the dispersant solution. 0.05 g of milled material was transferred into a 250 mL glass beaker. 25 mL of the dispersant solution (Tween 20/water mixture) was added to the beaker with continuous swirling for 2 to 3 minutes. The suspension was transferred into the measuring unit and the particle size distribution measurements were conducted in triplicate.

[2] = Single dose oral pharmacokinetic studies in rabbits; format: in vivo, male New Zealand White rabbits; conditions: for AUCextrap / AUC(0-inf) / AUC(0-t) / Cmax / MRT last / Tmax / half-life: 90 mg/kg b.w. oral single dose
Protocol: The studies detailed below (and referred to as Examples 2 to 8) were conducted to provide comparative single dose oral pharmacokinetics data for Compound 1, as well as sodium and potassium salts of that compound, using non-coated and enteric-coated capsules in male New Zealand White rabbits.
Compound 1 was made using the process described in WO 2011/004162 and milled as described for Example 1c. The non-coated or enteric coated gelatin capsules were individually filled with 180 mg of dry-milled Compound 1 together with accompanying excipients as indicated. Both capsule types were filled with Compound 1 together with 1.8 mg of sodium docusate, 0.18 mg of PVP K30 and 9 mg of mannitol.
Similarly, Compound 2, non-coated or enteric coated gelatin capsules were individually filled with 180 mg of dry-milled Compound 2 (as obtained in Example 1f) together with 1.8 mg of sodium docusate, 0.18 mg of PVP K30 and 9 mg of mannitol.
For Compound 3, non-coated or enteric coated gelatin capsules were individually filled with 90 mg of dry-milled Compound 3 (as obtained in Example 1i) together with 0.90 mg of sodium docusate, 0.09 mg of PVP K30 and 4.50 mg of mannitol.
40 mL of the 2% w/v methyl cellulose solution was added to a 250 mL conical flask together with 10 g of 2 mm glass beads, and vigorously stirred. Compound 1 (720 mg) was slowly added to the solution and the mixture was with continuously stirred for 1 h. The homogenate was transferred to separate flask and its pH recorded. The suspension formulation was prepared before administration to the animals.
Adult healthy male New Zealand white rabbits aged approximately 2 to 3 months old were used for experimentation after 7 days of acclimatization.
To dose the filled capsules, a soft plastic dosing tube was used. The filled capsule was inserted into the dosing tube so that the short end of the capsule protrudes slightly from the tip of the tube. The tip of the capsule was dipped in mineral oil to aid swallowing.
To dose the suspension, an infant feeding tube was used. The feeding tube was inserted through the mouth of the rabbit to the oesophagus and the stomach, and ascertained that it has not been placed in the trachea before dosing to the animals. The suspension of the Compound 1 was administered through the feeding tube. After the administration of the suspension, drinking water of approximately 2.0-2.5 mL was administered to flush out the contents in the feeding tube.
The animals were restrained in a rabbit restrainer and blood samples (400-500 μL/time point) were collected via the central ear artery at 0.16, 0.25, 0.50, 1.0, 2.0, 4.0, 6.0, 8.0, 24.0, 48.0 and 72 hours post-dosing. Collected blood specimens were centrifuged at 4000 or 6000 rpm, 4° C. for 10 minutes and plasma samples were separated and stored at −80° C. until analysis.
Concentrations of the analyte of Compound 1 in New Zealand white rabbits was determined using an API 3200 Q-trap LC-MS/MS system.
Chromatographic separation was achieved on Zorbax C18, 50×4.6 mm, 5 μm column with methanol-0.1% formic acid as mobile phase with gradient elution. The flow rate was set at 1.0 mL min^−1. Detection was accomplished by a triple-quadrupole tandem mass spectrometer in multiple-reaction monitoring (MRM) scanning via electrospray ionization source, applied in the positive mode. The optimised mass transition ion-pairs for quantitation were m/z 379.999→125.000 for the compound 1 and m/z 376.165→165.00 for the ISD (Haloperidol). Calibration plots were linear over the range of 11.062 to 20594.820 ng/mL.
The data of plasma concentration to respective time points for the analyte Compound 1 were used for the pharmacokinetic analysis. Pharmacokinetic analysis was performed using non-compartmental analysis (NCA) module of Phoenix WinNonlin 6.3 software to determine the following pharmacokinetic parameters: • Cmax • Tmax • AUC0-t • AUC0-∞ • T1/2 • MRT […]

[3] = after 1st milling (air jet mill)
[4] = after 2nd milling (air jet mill)
[5] = male, New Zealand White, rabbit, plasma, po, 90 mg/kg, enteric coated capsule, 90 mg/kg b.w. oral
[6] = male, New Zealand White, rabbit, plasma, po, 90 mg/kg, non-coated capsule, 90 mg/kg b.w. oral
[7] = male, New Zealand White, rabbit, plasma, po, 90 mg/kg, standard suspension, 90 mg/kg b.w. oral
[8] = male, New Zealand White, rabbit, plasma, po, 90 mg/kg, enteric coated capsule, rabbit plasma (Examples 5, 6, 7)
[9] = male, New Zealand White, rabbit, plasma, po, 90 mg/kg, non-coated capsule, rabbit plasma (Examples 2, 3, 4)
[10] = male, New Zealand White, rabbit, plasma, po, 90 mg/kg, standard suspension (2% w/v methylcellulose), rabbit plasma (Example 8)

O=C(Nc1nc(=O)n(Cc2ccc(Cl)cc2)s1)c1ccc(Cl)cc1 [Compound 1, 4-Chloro-N-[2-[(4-chlorophenyl)methyl]-3-oxo-1,2,4-thiadiazol-5-yl]benzamide]
Particle size distribution D10 [1, 3]: 1.8 μm | Particle size distribution D50 [1, 3]: 5.0 μm | Particle size distribution D90 [1, 3]: 11.4 μm | Particle size distribution D100 [1, 3]: 33.7 μm | Particle size distribution D10 [1, 4]: 1.2 μm | Particle size distribution D50 [1, 4]: 3.7 μm | Particle size distribution D90 [1, 4]: 8.3 μm | Particle size distribution D100 [1, 4]: 21.4 μm | Particle size distribution D10 ([1]; before milling): 13.5 μm | Particle size distribution D50 ([1]; before milling): 28.0 μm | Particle size distribution D90 ([1]; before milling): 55.2 μm | Particle size distribution D100 ([1]; before milling): 187.0 μm | Plasma concentration, mean ([2]; 0.16 h, non-coated capsule, 90 mg/kg b.w. oral, rabbit): 0.000 ng/mL | Plasma concentration, mean ([2]; 0.25 h, non-coated capsule, 90 mg/kg b.w. oral, rabbit): 0.000 ng/mL | Plasma concentration, mean ([2]; 0.50 h, non-coated capsule, 90 mg/kg b.w. oral, rabbit): 50.474 ng/mL | Plasma concentration, mean ([2]; 1.00 h, enteric coated capsule, 90 mg/kg b.w. oral, rabbit): 0.000 ng/mL | Plasma concentration, mean ([2]; 1.00 h, non-coated capsule, 90 mg/kg b.w. oral, rabbit): 386.171 ng/mL | Plasma concentration, mean ([2]; 2.00 h, enteric coated capsule, 90 mg/kg b.w. oral, rabbit): 5.857 ng/mL | Plasma concentration, mean ([2]; 2.00 h, non-coated capsule, 90 mg/kg b.w. oral, rabbit): 1530.898 ng/mL | Plasma concentration, mean ([2]; 4.00 h, enteric coated capsule, 90 mg/kg b.w. oral, rabbit): 206.003 ng/mL | Plasma concentration, mean ([2]; 6.00 h, enteric coated capsule, 90 mg/kg b.w. oral, rabbit): 307.917 ng/mL | Plasma concentration, mean ([2]; 6.00 h, non-coated capsule, 90 mg/kg b.w. oral, rabbit): 25336.370 ng/mL | Plasma concentration, mean ([2]; 8.00 h, enteric coated capsule, 90 mg/kg b.w. oral, rabbit): 1505.092 ng/mL | Plasma concentration, mean ([2]; 24.00 h, enteric coated capsule, 90 mg/kg b.w. oral, rabbit): 45705.076 ng/mL | Plasma concentration, mean ([2]; 72.00 h, non-coated capsule, 90 mg/kg b.w. oral, rabbit): 35657.688 ng/mL | AUCextrap ([2]; enteric coated capsule, rabbit plasma (Examples 5, 6, 7)): 82.44 ± 9.84% | concentration at 0 h [2, 5]: 0 ng/mL | concentration at 0 h [2, 6]: 0 ng/mL | concentration at 0 h [2, 7]: 0 ng/mL | concentration at 0.16 h ([2]; male, New Zealand White, rabbit, plasma, po, 90 mg/kg, 0.16 h, enteric coated capsule, 90 mg/kg b.w. oral): 0 ng/mL | concentration at 0.16 h ([2]; male, New Zealand White, rabbit, plasma, po, 90 mg/kg, 0.16 h, standard suspension, 90 mg/kg b.w. oral): 1210 ng/mL | concentration at 0.25 h ([2]; male, New Zealand White, rabbit, plasma, po, 90 mg/kg, 0.25 h, enteric coated capsule, 90 mg/kg b.w. oral): 0 ng/mL | concentration at 0.25 h ([2]; male, New Zealand White, rabbit, plasma, po, 90 mg/kg, 0.25 h, standard suspension, 90 mg/kg b.w. oral): 4420 ng/mL | concentration at 0.5 h ([2]; male, New Zealand White, rabbit, plasma, po, 90 mg/kg, 0.50 h, enteric coated capsule, 90 mg/kg b.w. oral): 0 ng/mL | concentration at 0.5 h ([2]; male, New Zealand White, rabbit, plasma, po, 90 mg/kg, 0.50 h, standard suspension, 90 mg/kg b.w. oral): 7250 ng/mL | concentration at 1 h ([2]; male, New Zealand White, rabbit, plasma, po, 90 mg/kg, 1.00 h, standard suspension, 90 mg/kg b.w. oral): 9390 ng/mL | concentration at 2 h ([2]; male, New Zealand White, rabbit, plasma, po, 90 mg/kg, 2.00 h, standard suspension, 90 mg/kg b.w. oral): 10100 ng/mL | concentration at 4 h ([2]; male, New Zealand White, rabbit, plasma, po, 90 mg/kg, 4.00 h, non-coated capsule, 90 mg/kg b.w. oral): 13400 ng/mL | concentration at 4 h ([2]; male, New Zealand White, rabbit, plasma, po, 90 mg/kg, 4.00 h, standard suspension, 90 mg/kg b.w. oral): 11600 ng/mL | concentration at 6 h ([2]; male, New Zealand White, rabbit, plasma, po, 90 mg/kg, 6.00 h, standard suspension, 90 mg/kg b.w. oral): 139000 ng/mL | concentration at 8 h ([2]; male, New Zealand White, rabbit, plasma, po, 90 mg/kg, 8.00 h, non-coated capsule, 90 mg/kg b.w. oral): 39200 ng/mL | concentration at 8 h ([2]; male, New Zealand White, rabbit, plasma, po, 90 mg/kg, 8.00 h, standard suspension, 90 mg/kg b.w. oral): 28700 ng/mL | concentration at 24 h ([2]; male, New Zealand White, rabbit, plasma, po, 90 mg/kg, 24.00 h, non-coated capsule, 90 mg/kg b.w. oral): 63600 ng/mL | concentration at 24 h ([2]; male, New Zealand White, rabbit, plasma, po, 90 mg/kg, 24.00 h, standard suspension, 90 mg/kg b.w. oral): 18400 ng/mL | concentration at 48 h [2, 5]: 59700 ng/mL | concentration at 48 h [2, 6]: 54800 ng/mL | concentration at 48 h [2, 7]: 8830 ng/mL | concentration at 72 h ([2]; male, New Zealand White, rabbit, plasma, po, 90 mg/kg, 72.00 h, enteric coated capsule, 90 mg/kg b.w. oral): 52300 ng/mL | concentration at 72 h ([2]; male, New Zealand White, rabbit, plasma, po, 90 mg/kg, 72.00 h, standard suspension, 90 mg/kg b.w. oral): 3030 ng/mL | AUC(0-inf) [2, 8]: 18600 ± 12800 µg·h/mL | AUC(0-t) [2, 8]: 2990 ± 666 µg·h/mL | Cmax [2, 8]: 60800 ± 15700 ng/mL | MRT last [2, 8]: 45.2 ± 2.54 h | Tmax [2, 8]: 40 ± 13.9 h | half-life [2, 8]: 252 ± 133 h | AUC(0-inf) [2, 9]: 7390 ± 3870 µg·h/mL | AUC(0-t) [2, 9]: 3450 ± 405 µg·h/mL | Cmax [2, 9]: 63700 ± 3790 ng/mL | MRT last [2, 9]: 36.9 ± 2.56 h | Tmax [2, 9]: 32 ± 13.9 h | half-life [2, 9]: 68.2 ± 43 h | AUC(0-inf) [2, 10]: 1120 µg·h/mL | AUC(0-t) [2, 10]: 952 ± 175 µg·h/mL | Cmax [2, 10]: 31200 ± 11500 ng/mL | MRT last [2, 10]: 25 ± 5 h | Tmax [2, 10]: 19 ± 9 h | half-life [2, 10]: 36 ± 8 h | AUCextrap ([2]; non-coated capsule, rabbit plasma (Examples 2, 3, 4)): 46.71 ± 19.06% | AUCextrap ([2]; standard suspension (2% w/v methylcellulose), rabbit plasma (Example 8)): 14 ± 9%
